Results on 17 compounds are retold here after ChEMBL document CHEMBL6083261, “Structure-guided design and photochemical synthesis of new carbamo(dithioperoxo)thioates with improved potencies to SARS-CoV-2 3CLpro” (Bioorg Med Chem, 2024).

pIC50: −log10 of the molar value.

For orientation: pIC50 means the IC50 on a negative log10 scale, so that one unit is a factor of ten. What is called inhibition is the percentage by which the read-out fell short of the control.

The target in series [1] is T1, Replicase polyprotein 1ab (Severe acute respiratory syndrome coronavirus 2, UniProt P0DTD1). Briefly: Inhibition of SARS-CoV-2 N/C terminal 6his tagged 3CL protease extracted from Escherichia coli BL21(DE3) using CA-AVLQSGFR-Lys(Dnp)-Lys-NH2 as fluorescent substrate preincubated for 1 hr followed by substrate addition and measured after 20 mins by FRET analysis.
Series [2] addresses T1, Replicase polyprotein 1ab. Put plainly: Inhibition of SARS-CoV-2 PL protease.
Series [3] addresses T1, Replicase polyprotein 1ab. Put plainly: Inhibition of SARS-CoV-2 RdRp.
The subject of another series is Vero C1008. Put plainly: Cytotoxicity against African green monkey Vero E6 cells at 1 mM incubated for 24 hrs by CCK-8 method. In kind it is toxicity, cell-based. Particulars: chlorocebus sabaeus, vero c1008, 24 h, 1000 µM.
For series [4], the target named is Replicase polyprotein 1ab (Severe acute respiratory syndrome coronavirus 2) (UniProt P0DTD1). Put plainly: Inhibition of SARS-CoV-2 N/C terminal 6his tagged 3CL protease extracted from Escherichia coli BL21(DE3) using CA-AVLQSGFR-Lys(Dnp)-Lys-NH2 as fluorescent substrate preincubated for 10 mins followed by substrate addition and measured every 10 sec for 10 mins in presence of DTT by FRET analysis relative to control. The note with it: time 20.0 min. On the set-up: concentration or dose not given beside the values.

The target is the same in series [5]. Briefly: Inhibition of SARS-CoV-2 N/C terminal 6his tagged 3CL protease extracted from Escherichia coli BL21(DE3) using CA-AVLQSGFR-Lys(Dnp)-Lys-NH2 as fluorescent substrate preincubated for 1 hr followed by substrate addition and measured after 20 mins by FRET analysis relative to control. The arrangement: concentration or dose not given beside the values. Particulars: time 80.0 min.

For the compound `OC1CCN(C(=S)SSc2ccc(C(F)(F)F)cc2)CC1`, the values for the negative logarithm of the IC50 (pIC50) in series [1], in series [2] and in series [3] were 6.85, 7.40 and 4.80, respectively. Further, in the series with Vero C1008, the Activity entry is given as “Toxic”. In addition, the results for the inhibition in series [4] and in series [5] were 60% and > 95%, respectively.
With `S=C(SSC(=S)N1CCCC1)N1CCCC1` [BIS(PYRROLIDINYLTHIOCARBONYL)DISULFIDE], the pIC50 in series [1] is 5.87; in series [2], 7.22; in series [3], 5.05.
For `S=C(SSC(=S)N1CCOCC1)N1CCOCC1` the same measures were 5.91, 6.41 and 4.27.
On to `OC1CCN(C(=S)SSCc2ccccc2)CC1`, for which the pIC50 in series [1] was 6.60; in series [2], 6.48; in series [3], 4.67. Moreover, the inhibition in series [4] is 60%; in series [5], > 95%.
As to `O=[N+]([O-])c1ccc(SSC(=S)N2CCC(O)CC2)cc1`, the pIC50 in series [1] is 6.62; in series [2] it was 6.49; in series [3], 4.34. Besides, the Activity entry in the series with Vero C1008 is given as “Toxic”. Besides, the inhibition in series [4] was 60%; in series [5] it was > 95%.
As for `OC1CCN(C(=S)SSC(=S)N2CCC(O)CC2)CC1`, the pIC50 in series [1] is 6.04; in series [2], 6.24; in series [3] it was 4.08. For the same compound, the Activity result in the series on Vero C1008 was “Toxic”. Besides, the inhibition in series [4] is 60%.
`S=C(SSc1ccccc1)N1CCOCC1`: the pIC50 in series [1] is 6.18; in series [2], 5.76; in series [3] it was < 4.00.
Taken in the same sequence, the figures for `S=C(SSc1ccccc1)N1CCCC1` were 6.40, 6.66 and 4.92.
Taken in the same sequence, the figures for `S=C(SSC(=S)N1CCCCC1)N1CCCCC1` [BIS(PIPERIDINYLTHIOCARBONYL)DISULFIDE] were 5.83, 7.15 and 4.99.
With `OC1CCN(C(=S)SSc2ccccc2)CC1`, the results for the pIC50 in series [1], in series [2] and in series [3] were 6.46, < 4.00 and < 4.00, respectively. Moreover, the Activity entry in the series with Vero C1008 is “Toxic”. Besides, the inhibition in series [4] is 60%; in series [5], > 95%.
For `CCN(CC)C(=S)SSc1ccccc1`, the pIC50 in series [1] was 2.97; in series [2], < 4.00; in series [3], < 4.00.
Consider `OC1CCN(C(=S)SSc2ccc(F)cc2)CC1`, for which the pIC50 in series [1] is 6.72; in series [2] it was 7.00; in series [3] it was 5.01. In the series on Vero C1008, the Activity result was “Toxic”. In addition, the figures for the inhibition in series [4] and in series [5] were 60% and > 95%, respectively.
With `COc1ccc(SSC(=S)N2CCC(O)CC2)cc1`, the pIC50 in series [1] is 6.64; in series [2], 6.82; in series [3] it was 5.07. In addition, the Activity result in the series on Vero C1008 is “Toxic”. Moreover, the inhibition in series [4] was 60%; in series [5], > 95%.
In the case of `COC(=O)C1CCCN1C(=S)SSc1ccccc1` (stereo not given), the pIC50 in series [1] was 6.27; in series [2], 6.41; in series [3], 4.24.
With `Oc1ccc(SSC(=S)N2CCC(O)CC2)cc1`, the pIC50 in series [1] is 6.52; in series [2], 5.11; in series [3], 4.01. Further, the Activity entry with Vero C1008 is listed as “Toxic”. For the same compound, the inhibition is 60% in series [4] and > 95% in series [5].
In the case of `COC(=O)CCSSC(=S)N1CCC(O)CC1`, the pIC50 was 6.33 in series [1], < 4.00 in series [2] and < 4.00 in series [3]. For the same compound, the Activity result with Vero C1008 is recorded as “Toxic”. Also, the inhibition in series [5] was > 95%.
For the compound `S=C(SSc1ccccc1)N1CCCCC1`, the pIC50 was 6.19 in series [1], 5.60 in series [2] and < 4.00 in series [3].
